Laboratory results reported in patent US9783527B2, “Indazole ureas and method of use” (AbbVie Inc., priority 2014, dated 2017).

Legend:
[1] = test system: MIA-induced osteoarthritic pain in rats; experiment: Osteoarthritic (OA) pain induced by sodium monoiodoacetate (MIA), hind limb grip force; format: in vivo, rat; settings: male Sprague Dawley rats, grip force 20 days after MIA injection
human Nav1.8 = human Nav1.8 (Homo sapiens (Human), UniProt Q9Y5Y9); experiment: FRET-based membrane potential assay, recombinant human sodium channel Nav1.8; format: cell-based; settings: HEK293 cells stably expressing recombinant human Nav1.8; depolarization with veratridine (EC80) + scorpion venom
In short: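 HEK293 cells stably expressing Nav1.8 were loaded with CC2-DMPE/DiSBAC2(3) FRET voltage dyes. Compounds were added 3 min before depolarization with EC80 veratridine plus scorpion venom. The F440-480/F565-625 ratio was read on FLIPR; IC50 came from four-parameter Hill fits.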

Sequence of human Nav1.8 (Q9Y5Y9 whole entry): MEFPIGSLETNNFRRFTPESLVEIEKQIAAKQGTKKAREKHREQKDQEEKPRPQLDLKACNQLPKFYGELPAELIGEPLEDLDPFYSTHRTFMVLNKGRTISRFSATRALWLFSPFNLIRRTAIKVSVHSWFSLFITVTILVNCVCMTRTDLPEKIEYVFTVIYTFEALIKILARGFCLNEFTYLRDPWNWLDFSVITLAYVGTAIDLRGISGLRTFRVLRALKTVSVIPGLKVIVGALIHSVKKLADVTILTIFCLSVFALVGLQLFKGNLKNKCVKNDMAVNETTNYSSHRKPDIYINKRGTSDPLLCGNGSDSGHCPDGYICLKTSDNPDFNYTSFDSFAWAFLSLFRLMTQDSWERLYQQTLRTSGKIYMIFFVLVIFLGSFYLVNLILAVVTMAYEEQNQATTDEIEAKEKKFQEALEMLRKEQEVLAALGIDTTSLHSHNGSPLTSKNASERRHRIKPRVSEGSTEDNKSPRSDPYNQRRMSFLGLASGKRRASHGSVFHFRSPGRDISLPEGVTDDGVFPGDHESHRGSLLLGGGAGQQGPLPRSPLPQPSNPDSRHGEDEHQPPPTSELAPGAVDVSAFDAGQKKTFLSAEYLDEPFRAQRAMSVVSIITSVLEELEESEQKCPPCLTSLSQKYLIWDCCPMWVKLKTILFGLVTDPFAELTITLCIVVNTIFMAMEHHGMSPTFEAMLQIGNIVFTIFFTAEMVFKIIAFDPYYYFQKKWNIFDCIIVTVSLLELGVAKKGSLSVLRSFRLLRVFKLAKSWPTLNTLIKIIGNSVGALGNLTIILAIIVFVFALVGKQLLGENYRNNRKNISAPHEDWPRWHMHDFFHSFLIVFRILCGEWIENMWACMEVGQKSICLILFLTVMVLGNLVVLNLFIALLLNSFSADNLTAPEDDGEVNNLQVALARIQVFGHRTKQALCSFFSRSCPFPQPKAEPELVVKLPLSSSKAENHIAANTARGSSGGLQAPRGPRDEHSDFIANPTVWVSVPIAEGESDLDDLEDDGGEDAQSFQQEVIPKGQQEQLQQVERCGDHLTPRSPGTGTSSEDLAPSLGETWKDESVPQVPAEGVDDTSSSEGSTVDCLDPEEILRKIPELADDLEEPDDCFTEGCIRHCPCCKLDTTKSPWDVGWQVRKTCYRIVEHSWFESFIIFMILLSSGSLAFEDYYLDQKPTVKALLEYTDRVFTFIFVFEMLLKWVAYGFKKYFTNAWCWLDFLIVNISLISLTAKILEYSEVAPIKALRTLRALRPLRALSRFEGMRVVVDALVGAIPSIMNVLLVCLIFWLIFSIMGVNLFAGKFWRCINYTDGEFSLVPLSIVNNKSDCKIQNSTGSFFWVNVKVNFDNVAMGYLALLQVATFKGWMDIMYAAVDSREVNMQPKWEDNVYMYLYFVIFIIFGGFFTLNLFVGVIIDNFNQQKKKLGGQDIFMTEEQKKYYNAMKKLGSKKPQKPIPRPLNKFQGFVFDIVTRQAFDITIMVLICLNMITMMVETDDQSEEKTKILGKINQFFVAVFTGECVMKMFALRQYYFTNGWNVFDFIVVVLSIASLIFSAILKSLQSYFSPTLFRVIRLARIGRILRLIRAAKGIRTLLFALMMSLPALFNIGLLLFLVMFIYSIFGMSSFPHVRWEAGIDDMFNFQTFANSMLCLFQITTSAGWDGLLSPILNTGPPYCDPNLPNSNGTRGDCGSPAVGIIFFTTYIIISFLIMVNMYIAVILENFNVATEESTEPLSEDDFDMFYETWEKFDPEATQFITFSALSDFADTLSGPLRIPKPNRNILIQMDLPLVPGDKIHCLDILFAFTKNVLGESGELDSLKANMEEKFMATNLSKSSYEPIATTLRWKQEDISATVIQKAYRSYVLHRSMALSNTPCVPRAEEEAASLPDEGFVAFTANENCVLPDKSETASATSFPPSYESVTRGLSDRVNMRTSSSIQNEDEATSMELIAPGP

Row | SMILES | OA MPE (%) ([1]; OA dose 30 mg/kg) | IC50 (human Nav1.8) [µM] | OA MPE (%) ([1]; OA dose 10 mg/kg)
1 | Cc1noc(C(C)N2CCN(c3cccc4c3cnn4-c3ccccc3F)C2=O)n1 (racemic) [Example 46, 1-[1-(2-fluorophenyl)-1H-indazol-4-yl]-3-[1-(3-methyl-1,2,4-oxadiazol-5-yl)ethyl]imidazolidin-2-one] | 69 | 8.73 | –
2 | C[C@H]1CCCN1C(=O)CN1CCN(c2cccc3c2cnn3-c2ccccc2F)C1=O [Example 15, 1-[1-(2-fluorophenyl)-1H-indazol-4-yl]-3-{2-[(2S)-2-methylpyrrolidin-1-yl]-2-oxoethyl}imidazolidin-2-one] | 68 | 1.81 | –
3 | Cc1noc(C)c1CN1CCN(c2cccc3c2cnn3-c2ccccc2F)C1=O [Example 27, 1-[(3,5-dimethyl-1,2-oxazol-4-yl)methyl]-3-[1-(2-fluorophenyl)-1H-indazol-4-yl]imidazolidin-2-one] | – | 1.04 | 57
4 | O=C(CN1CCN(c2cccc3c2cnn3-c2ccccc2F)C1=O)N[C@@H]1CCOC1 [Example 55, 2-{3-[1-(2-fluorophenyl)-1H-indazol-4-yl]-2-oxoimidazolidin-1-yl}-N-[(3R)-tetrahydrofuran-3-yl]acetamide] | 66 | 5.28 | –
